Reference: ChEMBL document CHEMBL3792292, “Development of a potent and selective FLT3 kinase inhibitor by systematic expansion of a non-selective fragment-screening hit” (Bioorg Med Chem Lett, 2016)

Columns and labels:
[1] = biological target: T1, Receptor-type tyrosine-protein kinase FLT3 (Homo sapiens, UniProt P36888); assay: Inhibition of human N-terminal GST-tagged FLT3 cytoplasmic domain (564 to 993 residues) expressed in baculovirus expression system using fluorescence labelled srctide as substrate by mobility shift assay in presence of ATP
T1 sequence (P36888 whole entry): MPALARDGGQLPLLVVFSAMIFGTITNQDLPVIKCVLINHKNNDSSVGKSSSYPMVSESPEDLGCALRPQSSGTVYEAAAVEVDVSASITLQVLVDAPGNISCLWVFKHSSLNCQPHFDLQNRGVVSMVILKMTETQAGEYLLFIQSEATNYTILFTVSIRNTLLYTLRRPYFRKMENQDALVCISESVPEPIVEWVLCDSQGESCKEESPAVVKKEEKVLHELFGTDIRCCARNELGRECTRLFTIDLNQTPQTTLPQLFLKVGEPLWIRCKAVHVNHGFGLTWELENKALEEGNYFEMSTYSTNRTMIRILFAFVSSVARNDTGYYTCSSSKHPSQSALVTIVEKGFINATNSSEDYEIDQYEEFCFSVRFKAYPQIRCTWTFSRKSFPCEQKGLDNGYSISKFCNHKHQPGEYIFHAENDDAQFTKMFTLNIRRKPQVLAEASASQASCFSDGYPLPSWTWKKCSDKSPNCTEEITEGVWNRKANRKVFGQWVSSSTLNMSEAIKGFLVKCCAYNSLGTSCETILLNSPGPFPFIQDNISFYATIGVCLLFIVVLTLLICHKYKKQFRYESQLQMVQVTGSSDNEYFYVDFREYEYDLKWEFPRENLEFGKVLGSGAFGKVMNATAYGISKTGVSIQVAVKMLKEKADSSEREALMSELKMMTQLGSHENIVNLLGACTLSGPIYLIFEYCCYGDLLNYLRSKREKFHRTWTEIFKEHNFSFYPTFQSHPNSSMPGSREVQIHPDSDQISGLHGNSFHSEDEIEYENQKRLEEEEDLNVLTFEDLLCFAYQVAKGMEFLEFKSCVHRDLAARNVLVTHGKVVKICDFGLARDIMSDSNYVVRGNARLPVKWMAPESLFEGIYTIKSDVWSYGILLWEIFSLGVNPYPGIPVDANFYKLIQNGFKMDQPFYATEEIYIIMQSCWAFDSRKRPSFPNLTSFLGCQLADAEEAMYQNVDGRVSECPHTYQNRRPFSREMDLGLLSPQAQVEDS

[2] = biological target: T2, Testis-specific serine/threonine-protein kinase 1 (Homo sapiens) (UniProt Q9BXA7); assay: Inhibition of full length human N-terminal GST-tagged TSSK1 (1 to 367 residues) expressed in baculovirus expression system using fluorescence labelled GS peptide substrate at 50 times IC50 by electrophoretic mobility shift assay relative to control
T2 sequence (whole entry): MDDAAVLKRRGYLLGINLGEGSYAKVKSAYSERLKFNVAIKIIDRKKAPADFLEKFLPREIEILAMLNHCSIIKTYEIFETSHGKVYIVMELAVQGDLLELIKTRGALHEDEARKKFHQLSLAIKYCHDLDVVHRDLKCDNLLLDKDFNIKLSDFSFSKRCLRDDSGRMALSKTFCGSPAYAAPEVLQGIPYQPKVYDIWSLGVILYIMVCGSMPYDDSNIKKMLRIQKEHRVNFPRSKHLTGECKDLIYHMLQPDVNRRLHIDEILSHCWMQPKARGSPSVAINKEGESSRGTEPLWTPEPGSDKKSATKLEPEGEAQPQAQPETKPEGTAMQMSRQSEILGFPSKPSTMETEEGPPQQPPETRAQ

[3] = biological target: T3, Interleukin-1 receptor-associated kinase 4 (Homo sapiens) (UniProt Q9NWZ3); assay: Inhibition of full length human N-terminal GST-tagged IRAK4 (1 to 460 residues) expressed in baculovirus expression system using fluorescence labelled IRAK1 peptide substrate at 50 times IC50 by electrophoretic mobility shift assay relative to control
T3 sequence (whole entry): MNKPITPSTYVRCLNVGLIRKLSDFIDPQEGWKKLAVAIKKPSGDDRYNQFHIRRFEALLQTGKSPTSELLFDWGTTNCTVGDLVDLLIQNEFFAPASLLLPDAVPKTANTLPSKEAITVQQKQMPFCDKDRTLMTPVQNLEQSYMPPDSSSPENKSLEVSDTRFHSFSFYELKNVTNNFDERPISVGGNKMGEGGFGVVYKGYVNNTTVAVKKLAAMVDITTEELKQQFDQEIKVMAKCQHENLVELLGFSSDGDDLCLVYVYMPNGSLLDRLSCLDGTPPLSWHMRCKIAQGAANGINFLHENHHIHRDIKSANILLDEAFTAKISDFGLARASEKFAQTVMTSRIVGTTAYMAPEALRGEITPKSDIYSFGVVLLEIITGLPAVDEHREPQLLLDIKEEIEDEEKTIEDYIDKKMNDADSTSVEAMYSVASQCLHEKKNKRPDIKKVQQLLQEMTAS

[4] = biological target: Mitogen-activated protein kinase 9 (Homo sapiens) (UniProt P45984); assay: Inhibition of human N-terminal GST-tagged JNK2 catalytic domain (1 to 364 residues) expressed in Escherichia coli using fluorescence labelled modified Erktide as substrate at 50 times IC50 by electrophoretic mobility shift assay relative to control
Sequence of Mitogen-activated protein kinase 9 (Homo sapiens) (P45984 whole entry, looked up, the tested form may be a part): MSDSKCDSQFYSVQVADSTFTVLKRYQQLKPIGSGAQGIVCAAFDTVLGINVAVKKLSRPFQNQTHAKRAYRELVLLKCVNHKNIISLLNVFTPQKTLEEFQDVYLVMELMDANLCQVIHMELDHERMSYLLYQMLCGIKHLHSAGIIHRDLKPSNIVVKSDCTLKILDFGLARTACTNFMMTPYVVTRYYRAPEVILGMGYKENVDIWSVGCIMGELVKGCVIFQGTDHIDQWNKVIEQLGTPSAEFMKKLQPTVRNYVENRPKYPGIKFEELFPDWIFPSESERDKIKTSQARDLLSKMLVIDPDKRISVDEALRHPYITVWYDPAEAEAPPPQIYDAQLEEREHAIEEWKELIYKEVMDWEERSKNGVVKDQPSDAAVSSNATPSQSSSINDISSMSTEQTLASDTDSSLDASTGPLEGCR

[5] = biological target: Mitogen-activated protein kinase 14 (Homo sapiens) (UniProt Q16539); assay: Inhibition of human N-terminal GST-tagged p38alpha (9 to 352 residues) expressed in Escherichia coli using fluorescence labelled modified Erktide as substrate at 50 times IC50 by electrophoretic mobility shift assay relative to control
Sequence of Mitogen-activated protein kinase 14 (Homo sapiens) (Q16539 whole entry, the tested form may be a part): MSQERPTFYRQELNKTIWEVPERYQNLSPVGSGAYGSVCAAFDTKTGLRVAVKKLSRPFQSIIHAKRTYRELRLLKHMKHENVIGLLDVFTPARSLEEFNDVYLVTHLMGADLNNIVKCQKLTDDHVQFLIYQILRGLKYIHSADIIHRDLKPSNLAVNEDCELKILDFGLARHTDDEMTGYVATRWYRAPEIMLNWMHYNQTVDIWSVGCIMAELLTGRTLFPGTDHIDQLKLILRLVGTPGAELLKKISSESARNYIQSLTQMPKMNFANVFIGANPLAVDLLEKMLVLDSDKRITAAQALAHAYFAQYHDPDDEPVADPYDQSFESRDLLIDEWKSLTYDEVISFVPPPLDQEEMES

[6] = biological target: Ribosomal protein S6 kinase beta-1 (Homo sapiens) (UniProt P23443); assay: Inhibition of human N-terminal GST-tagged p70S6K catalytic domain (1 to 421 residues) expressed in baculovirus expression system coexpressing His-tagged PDK1 (1 to 556 residues) using fluorescence labelled S6K2 peptide substrate at 50 times IC50 by electrophoretic mobility shift assay relative to control
Sequence of Ribosomal protein S6 kinase beta-1 (Homo sapiens) (P23443 whole entry, looked up, the tested form may be a part): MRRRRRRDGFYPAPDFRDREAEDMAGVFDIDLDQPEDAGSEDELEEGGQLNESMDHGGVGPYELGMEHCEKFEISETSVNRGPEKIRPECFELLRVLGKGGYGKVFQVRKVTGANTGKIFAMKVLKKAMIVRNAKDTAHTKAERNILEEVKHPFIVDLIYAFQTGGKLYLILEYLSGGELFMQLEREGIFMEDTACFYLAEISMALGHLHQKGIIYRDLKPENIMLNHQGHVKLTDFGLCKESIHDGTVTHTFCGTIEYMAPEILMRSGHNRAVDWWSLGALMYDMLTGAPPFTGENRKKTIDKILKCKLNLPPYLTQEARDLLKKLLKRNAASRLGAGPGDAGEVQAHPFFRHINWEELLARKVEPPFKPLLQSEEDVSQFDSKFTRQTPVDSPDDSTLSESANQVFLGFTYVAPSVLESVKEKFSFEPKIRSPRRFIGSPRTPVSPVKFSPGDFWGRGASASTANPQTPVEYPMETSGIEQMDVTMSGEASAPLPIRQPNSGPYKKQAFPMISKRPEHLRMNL

[7] = biological target: [Pyruvate dehydrogenase (acetyl-transferring)] kinase isozyme 1, mitochondrial (Homo sapiens) (UniProt Q15118); assay: Inhibition of full length human N-terminal GST-tagged PDK1 (1 to 436 residues) expressed in baculovirus expression system using fluorescence labelled PDHKtide as substrate at 50 times IC50 by electrophoretic mobility shift assay relative to control
[8] = biological target: cAMP-dependent protein kinase catalytic subunit alpha (Homo sapiens) (UniProt P17612); assay: Inhibition of full length human N-terminal GST-tagged PKACalpha (1 to 351 residues) expressed in baculovirus expression system using fluorescence labelled kemptide as substrate at 50 times IC50 by electrophoretic mobility shift assay relative to control
[9] = biological target: Protein kinase C alpha type (Homo sapiens) (UniProt P17252); assay: Inhibition of full length human N-terminal GST-tagged PKCalpha (1 to 672 residues) expressed in baculovirus expression system using fluorescence labelled PKC peptide substrate at 50 times IC50 by electrophoretic mobility shift assay relative to control

Compound	IC50 [1] [nM]	inhibition [2] [%]	inhibition [3] [%]	inhibition [4] [%]	inhibition [5] [%]	inhibition [6] [%]	inhibition [7] [%]	inhibition [8] [%]	inhibition [9] [%]
O=C(Nc1ccc(C(=O)N2CCN(c3ccccc3)CC2)cc1)c1n[nH]c2ccccc12	23	4.3	2.6	9.3	-1.8	43	1.9	2.7	10.6
O=C(Nc1ccccc1)c1n[nH]c2ccccc12	350	12.9	19.7	24.5	6.9	47.3	-2.1	3.1	2.4
O=C(Nc1ccc(CN2CCN(c3ccccc3)CC2)cc1)c1n[nH]c2ccccc12	9	1	-1.9	-1.1	-2.6	17.8	-2.8	-1.4	-0.9
